Measured values taken from patent publication US20240190860A1, “8-CYCLO-SUBSTITUTED QUINAZOLINE DERIVATIVES AS LPA RECEPTOR 2 INHIBITORS” (CHIESI FARMACEUTICI S.p.A., priority 2021, published 2024).

The compounds below were run against T1, human recombinant LPA2 expressed in CHO cells (Homo sapiens, UniProt Q9HBW0) (assay: FLIPR calcium mobilization assay, LPA2 antagonism in CHO-hLPA2 cells). Conditions: CHO-hLPA2 cells, inhibition of LPA EC80 Ca2+ response, 30 min pre-incubation; read-out: LPA2 IC50.
T1 construct: expressed in transfected cells; host or cells: CHO cells (CHO-hLPA2 cell line)
Type: cell-based
Summary of the method: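 CHO cells stably expressing human LPA2, loaded 30 min at 37° C with 5 μM Cal-520 AM plus 2.5 mM probenecid in HEPES buffer pH 7.4, then preincubated 30 min with antagonist (11-point series, 0.5% DMSO final). Challenged with LPA at EC80; baseline-subtracted peak FLIPR fluorescence converted to % inhibition and pIC50 by four-parameter logistic fit.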

T1 sequence (Q9HBW0 whole entry): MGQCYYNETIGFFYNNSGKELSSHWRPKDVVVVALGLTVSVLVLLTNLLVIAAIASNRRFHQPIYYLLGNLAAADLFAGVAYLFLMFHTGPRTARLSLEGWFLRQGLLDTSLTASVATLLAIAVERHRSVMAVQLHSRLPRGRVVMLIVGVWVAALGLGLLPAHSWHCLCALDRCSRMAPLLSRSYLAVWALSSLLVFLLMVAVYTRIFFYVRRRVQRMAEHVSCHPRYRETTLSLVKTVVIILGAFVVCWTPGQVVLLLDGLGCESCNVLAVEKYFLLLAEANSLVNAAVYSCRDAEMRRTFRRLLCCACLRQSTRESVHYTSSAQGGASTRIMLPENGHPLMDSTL

Compound	IC50 [nM]
Cc1cc(-c2ccc(S(=O)(=O)N3CCN(C[C@H](C)Nc4ncnc5c(-c6cccc(CN(C)C)c6)cccc45)CC3)s2)on1 [Example 17, 8-{3-[(dimethylamino)methyl]phenyl}-N-[(2S)-1-(4-{[5-(3-methyl-1,2-oxazol-5-yl)thiophen-2-yl]sulfonyl}piperazin-1-yl)propan-2-yl]quinazolin-4-amine]	< 10
COC(=O)Nc1nc(C)c(S(=O)(=O)N2CCN(C[C@H](C)Nc3ncnc4c(-c5ccc(N)nc5)cccc34)CC2)s1 [Example 56, methyl N-[5-({4-[(2S)-2-{[8-(6-aminopyridin-3-yl)quinazolin-4-yl]amino}propyl]piperazin-1-yl}sulfonyl)-4-methyl-1,3-thiazol-2-yl]carbamate]	10 to 100
Cc1cc(-c2ccc(S(=O)(=O)N3CCN(C[C@H](C)Nc4ncnc5c(-c6c(C)nn(C)c6C)cccc45)CC3)s2)on1 [Example 5, N-[(2S)-1-(4-{[5-(3-methyl-1,2-oxazol-5-yl)thiophen-2-yl]sulfonyl}piperazin-1-yl)propan-2-yl]-8-(1,3,5-trimethyl-1H-pyrazol-4-yl)quinazolin-4-amine]	< 10
COC(=O)Nc1nc(C)c(S(=O)(=O)N2CCN(C[C@H](C)Nc3ncnc4c(-c5cnn(C)c5C)cccc34)CC2)s1 [Example 64, methyl N-[5-({4-[(2S)-2-{[8-(1,5-dimethyl-1H-pyrazol-4-yl)quinazolin-4-yl]amino}propyl]piperazin-1-yl}sulfonyl)-4-methyl-1,3-thiazol-2-yl]carbamate]	< 10
COC(=O)Nc1nc(C)c(S(=O)(=O)N2CCN(C[C@H](C)Nc3ncnc4c(-c5cncc(N)c5)cccc34)CC2)s1 [Example 61, methyl N-[5-({4-[(2S)-2-{[8-(5-aminopyridin-3-yl)quinazolin-4-yl]amino}propyl]piperazin-1-yl}sulfonyl)-4-methyl-1,3-thiazol-2-yl]carbamate]	< 10
COC(=O)Nc1nc(C)c(S(=O)(=O)N2CCN(C[C@H](C)Nc3ncnc4c(-c5ccc(C)nc5)cccc34)CC2)s1 [Example 28, methyl N-[4-methyl-5-({4-[(2S)-2-{[8-(6-methylpyridin-3-yl)quinazolin-4-yl]amino}propyl]piperazin-1-yl}sulfonyl)-1,3-thiazol-2-yl]carbamate]	< 10
CC(=O)N1CCc2cc(S(=O)(=O)N3CCN(C[C@H](C)Nc4ncnc5c(-c6cn(C)nc6C(F)(F)F)cccc45)CC3)ccc21 [Example 68, 1-[5-({4-[(2S)-2-({8-[1-methyl-3-(trifluoromethyl)-1H-pyrazol-4-yl]quinazolin-4-yl}amino)propyl]piperazin-1-yl}sulfonyl)-2,3-dihydro-1H-indol-1-yl]ethan-1-one]	< 10
Cc1cc(-c2ccc(S(=O)(=O)N3CCN(C[C@H](C)Nc4ncnc5c(-c6cn(C)nc6C6CC6)cccc45)CC3)s2)on1 [Example 18, 8-(3-cyclopropyl-1-methyl-1H-pyrazol-4-yl)-N-[(2S)-1-(4-{[5-(3-methyl-1,2-oxazol-5-yl)thiophen-2-yl]sulfonyl}piperazin-1-yl)propan-2-yl]quinazolin-4-amine]	< 10
COC(=O)Nc1nc(C)c(S(=O)(=O)N2CCN(C[C@H](C)Nc3ncnc4c(-c5cccc(N6CCN(C)CC6)c5)cccc34)CC2)s1 [Example 35, methyl N-[4-methyl-5-({4-[(2S)-2-({8-[3-(4-methylpiperazin-1-yl)phenyl]quinazolin-4-yl}amino)propyl]piperazin-1-yl}sulfonyl)-1,3-thiazol-2-yl]carbamate]	< 10
C[C@@H](CN1CCN(S(=O)(=O)c2ccc3[nH]c(=O)[nH]c(=O)c3c2)CC1)Nc1ncnc2c(-c3cccc(CN(C)C)c3)cccc12 [Example 77, 6-({4-[(2S)-2-[(8-{3-[(dimethylamino)methyl]phenyl}quinazolin-4-yl)amino]propyl]piperazin-1-yl}sulfonyl)-1,2,3,4-tetrahydroquinazoline-2,4-dione]	< 10
COC(=O)Nc1nc(C)c(S(=O)(=O)N2CCN(C[C@H](C)Nc3ncnc4c(-c5cccc(CN(C)C)c5F)cccc34)CC2)s1 [Example 90, methyl N-[5-({4-[(2S)-2-[(8-{3-[(dimethylamino)methyl]-2-fluorophenyl}quinazolin-4-yl)amino]propyl]piperazin-1-yl}sulfonyl)-4-methyl-1,3-thiazol-2-yl]carbamate]	< 10
COC(=O)Nc1nc(C)c(S(=O)(=O)N2CCN(C[C@H](C)Nc3ncnc4c(-c5cccnc5C)cccc34)CC2)s1 [Example 48, methyl N-[4-methyl-5-({4-[(2S)-2-{[8-(2-methylpyridin-3-yl)quinazolin-4-yl]amino}propyl]piperazin-1-yl}sulfonyl)-1,3-thiazol-2-yl]carbamate]	< 10
COC(=O)Nc1nc(C)c(S(=O)(=O)N2CCN(C[C@H](C)Nc3ncnc4c(-c5ccc(CN(C)C)nc5)cccc34)CC2)s1 [Example 60, methyl N-[5-({4-[(2S)-2-[(8-{6-[(dimethylamino)methyl]pyridin-3-yl}quinazolin-4-yl)amino]propyl]piperazin-1-yl}sulfonyl)-4-methyl-1,3-thiazol-2-yl]carbamate]	< 10
COCC(=O)Nc1ncc(S(=O)(=O)N2CCN(C[C@H](C)Nc3ncnc4c(-c5cccnc5)cccc34)CC2)s1 [Example 49, 2-methoxy-N-[5-({4-[(2S)-2-{[8-(pyridin-3-yl)quinazolin-4-yl]amino}propyl]piperazin-1-yl}sulfonyl)-1,3-thiazol-2-yl]acetamide]	10 to 100
Cc1cc(C(=O)Nc2nc(C)c(S(=O)(=O)N3CCN(C[C@H](C)Nc4ncnc5c(-c6cccnc6)cccc45)CC3)s2)no1 [Example 33, 5-methyl-N-[4-methyl-5-({4-[(2S)-2-{[8-(pyridin-3-yl)quinazolin-4-yl]amino}propyl]piperazin-1-yl}sulfonyl)-1,3-thiazol-2-yl]-1,2-oxazole-3-carboxamide]	< 10
Cc1cc(-c2ccc(S(=O)(=O)N3CCN(C[C@H](C)Nc4ncnc5c(-c6ccccn6)cccc45)CC3)s2)on1 [Example 12, N-[(2S)-1-(4-{[5-(3-methyl-1,2-oxazol-5-yl)thiophen-2-yl]sulfonyl}piperazin-1-yl)propan-2-yl]-8-(pyridin-2-yl)quinazolin-4-amine]	< 10
C[C@@H](CN1CCN(S(=O)(=O)c2ccc3c(c2)sc(=O)n3C)CC1)Nc1ncnc2c(-c3ccc(F)c(CN(C)C)c3)cccc12 [Example 96, 6-({4-[(2S)-2-[(8-{3-[(dimethylamino)methyl]-4-fluorophenyl}quinazolin-4-yl)amino]propyl]piperazin-1-yl}sulfonyl)-3-methyl-2,3-dihydro-1,3-benzothiazol-2-one]	< 10
COC(=O)Nc1nc(C)c(S(=O)(=O)N2CCN(C[C@H](C)Nc3ncnc4c(-c5cccc(CN(C)C)c5C)cccc34)CC2)s1 [Example 89, methyl N-[5-({4-[(2S)-2-[(8-{3-[(dimethylamino)methyl]-2-methylphenyl}quinazolin-4-yl)amino]propyl]piperazin-1-yl}sulfonyl)-4-methyl-1,3-thiazol-2-yl]carbamate]	< 10
COC(=O)Nc1nc(C)c(S(=O)(=O)N2CCN(C[C@H](C)Nc3ncnc4c(-c5cccc(C)n5)cccc34)CC2)s1 [Example 71, methyl N-[4-methyl-5-({4-[(2S)-2-{[8-(6-methylpyridin-2-yl)quinazolin-4-yl]amino}propyl]piperazin-1-yl}sulfonyl)-1,3-thiazol-2-yl]carbamate]	< 10
COC(=O)Nc1nc(C)c(S(=O)(=O)N2CCN(C[C@H](C)Nc3ncnc4c(-c5sc(C)nc5C)cccc34)CC2)s1 [Example 1, methyl N-[5-({4-[(2S)-2-{[8-(2,4-dimethyl-1,3-thiazol-5-yl)quinazolin-4-yl]amino}propyl]piperazin-1-yl}sulfonyl)-4-methyl-1,3-thiazol-2-yl]carbamate]	< 10
